Holding throughout (assay): ≥ marks a high value that may be exact or a test limit, other limits are often not marked, values filed in µg/mL are converted to µM
Assay [1] has as its system Escherichia coli K-12.
Assay [2] deals with Staphylococcus aureus USA 300.
In assay [3] the test system is Staphylococcus aureus ATCC 2592.
For assay [4], the system named is Klebsiella pneumoniae.
Assay [5] concerns Bacillus megaterium.
Assay [6] has as its system Shigella dysenteriae.
Assay [7] has as its system Candida albicans ATCC 2002.
Assay [8] has as its system Pseudomonas aeruginosa CMCCB 10104.
For assay [9], the system named is Escherichia coli ATCC 25922.
In assay [10] the test system is Listeria innocua.
In assay [11] the test system is Leuconostoc lactis.
Assay [12] deals with Staphylococcus aureus ATCC 29213.
Assay [13] deals with Staphylococcus epidermidis ATCC 12228.
Assay [14] has as its system Bacillus subtilis ATCC 23857.
Assay [15] deals with Pseudomonas corrugata DSM 7228.
The test system of assay [16] is Pectobacterium carotovorum subsp. carotovorum DSM 30168.
Assay [17] has as its system Pseudomonas syringae pv. tomato DC3000.
The subject of assay [18] is Clavibacter michiganensis subsp. michiganensis DSM 46294.
Assay [19] has as its system Xanthomonas vesicatoria DSM 50861.
Assay [20] deals with Pseudomonas syringae pv. syringae DSM 10604.
Assay [21] deals with Staphylococcus aureus ATCC 6538.
The test system of assay [22] is Pseudomonas aeruginosa ATCC 27853.
Assay [23] relates to Bacillus subtilis ATCC 6633.
Assay [24] relates to Shigella dysenteriae ATCC 9752.
Assay [25] concerns Staphylococcus aureus ATCC 6538P.
Assay [26] has as its system Salmonella enterica subsp. enterica serovar Typhimurium ATCC 14028.
Assay [27] concerns Klebsiella pneumoniae ATCC 10031.

Structures are written as SMILES. Converted amounts (≈) assume the structure as drawn.

As for `CC[C@H](C)[C@H](NC(=O)[C@H](CCCN=C(N)N)NC(=O)[C@H](CCC(N)=O)NC(=O)[C@@H](NC(=O)[C@@H](NC(=O)[C@H](CCCN=C(N)N)NC(=O)[C@H](CCCN=C(N)N)NC(=O)[C@H](Cc1ccccc1)NC(=O)[C@H](CCC(=O)O)NC(=O)CN)[C@@H](C)CC)C(C)C)C(=O)N[C@@H](CCCN=C(N)N)C(=O)N[C@@H](CC(=O)O)C(=O)N[C@@H](Cc1ccccc1)C(=O)N[C@@H](CC(C)C)C(=O)N[C@@H](CCCN=C(N)N)C(=O)N[C@@H](CC(N)=O)C(=O)N[C@@H](CC(C)C)C(=O)N[C@H](C(N)=O)C(C)C` [GEFRRIVQRIRDFLRNLV], the MIC was not below 60 µM in [1] and 30 µM (≈ 68.6 µg/mL) in assay [2].
Consider `CC[C@H](C)[C@H](NC(=O)CN)C(=O)NCC(=O)NCC(=O)N[C@@H](CCCCN)C(=O)N[C@H](C(=O)N[C@@H](CC(C)C)C(=O)N[C@@H](CO)C(=O)NCC(=O)N[C@@H](CC(C)C)C(=O)N[C@@H](CCCCN)C(=O)N[C@H](C(=O)N[C@@H](C)C(=O)N[C@@H](CC(C)C)C(=O)N[C@@H](CCCCN)C(=O)NCC(=O)N[C@@H](C)C(=O)N[C@@H](C)C(=O)N[C@@H](CCCCN)C(=O)N[C@@H](CCC(=O)O)C(=O)N[C@@H](CC(C)C)C(=O)N[C@@H](C)C(=O)N[C@@H](CO)C(=O)N[C@H](C(=O)N[C@@H](Cc1ccc(O)cc1)C(=O)N[C@@H](CC(C)C)C(=O)N[C@@H](Cc1cnc[nH]1)C(=O)O)[C@@H](C)O)[C@@H](C)O)[C@@H](C)CC` [GIGGKILSGLKTALKGAAKELASTYLH], for which the MIC amounted to 1.15 µM (≈ 3.1 µg/mL) in assay [3]; 1.15 µM (≈ 3.1 µg/mL) in assay [4]; 0.334 µM (≈ 0.9 µg/mL) in assay [5]; 0.334 µM (≈ 0.9 µg/mL) in [6]; 5.56 µM (≈ 15 µg/mL) in assay [7]; 0.556 µM (≈ 1.5 µg/mL) in assay [8]. In addition, in [9], the MIC turned out to be 0.334 µM (≈ 0.9 µg/mL).
In the case of `CC[C@H](C)[C@H](NC(=O)CN)C(=O)NCC(=O)NCC(=O)N[C@H](C(=O)N[C@@H](CC(C)C)C(=O)N[C@@H](CC(C)C)C(=O)N[C@@H](CO)C(=O)N[C@@H](C)C(=O)NCC(=O)N[C@@H](CCCCN)C(=O)N[C@@H](C)C(=O)N[C@@H](C)C(=O)N[C@@H](CC(C)C)C(=O)N[C@@H](CCCCN)C(=O)NCC(=O)N[C@@H](CC(C)C)C(=O)N[C@@H](C)C(=O)N[C@@H](CCCCN)C(=O)N[C@H](C(=O)N[C@@H](CC(C)C)C(=O)N[C@@H](C)C(=O)N[C@@H](CCC(=O)O)C(=O)N[C@@H](CCCCN)C(=O)N[C@@H](Cc1ccc(O)cc1)C(=O)N[C@@H](C)C(=O)N[C@@H](CC(N)=O)C(N)=O)C(C)C)C(C)C` [GIGGVLLSAGKAALKGLAKVLAEKYAN], the MIC worked out at 1.03 µM (≈ 2.7 µg/mL) in assay [3]; 5.74 µM (≈ 15 µg/mL) in [4]; 0.574 µM (≈ 1.5 µg/mL) in assay [5]; 1.03 µM (≈ 2.7 µg/mL) in assay [6]; 5.74 µM (≈ 15 µg/mL) in [7]; 1.03 µM (≈ 2.7 µg/mL) in assay [8]. In assay [9], the MIC amounted to 1.03 µM (≈ 2.7 µg/mL).
Turning to `CC[C@H](C)[C@H](NC(=O)[C@H](CO)NC(=O)[C@H](CO)NC(=O)[C@@H](NC(=O)[C@H](CC(C)C)NC(=O)CN)C(C)C)C(=O)NCC(=O)N[C@@H](CCCCN)C(=O)N[C@H](C(=O)N[C@@H](CC(C)C)C(=O)NCC(=O)NCC(=O)N[C@@H](CC(C)C)C(=O)N[C@@H](CC(C)C)C(=O)N[C@@H](C)C(=O)N[C@@H](CC(=O)O)C(=O)N[C@H](C(=O)N[C@H](C(=O)N[C@@H](CCCCN)C(=O)N[C@@H](CO)C(=O)N[C@@H](CCCCN)C(=O)NCC(=O)N[C@@H](CCC(N)=O)C(=O)N1CCC[C@H]1C(=O)N[C@@H](C)C(=O)O)C(C)C)C(C)C)C(C)C` [GLVSSIGKVLGGLLADVVKSKGQPA], the values for the MIC in [10] and in assay [11] were not below 41.8 µM and 10.4 µM (≈ 25 µg/mL), respectively.
`CC[C@H](C)[C@H](N)C(=O)N[C@@H](CC(=O)O)C(=O)N[C@@H](Cc1c[nH]c2ccccc12)C(=O)N[C@@H](CCCCN)C(=O)N[C@@H](CCCCN)C(=O)N[C@@H](CC(C)C)C(=O)N[C@@H](CC(C)C)C(=O)N[C@@H](CC(=O)O)C(=O)N1CCC[C@H]1C(=O)N[C@@H](C)C(=O)N[C@@H](CCCCN)C(=O)N[C@@H](CCC(N)=O)C(=O)N[C@H](C(=O)N[C@@H](CC(C)C)C(N)=O)[C@@H](C)CC` [IDWKKLLDPAKQIL]: the MIC is 1020 µM (≈ 1720 µg/mL) in assay [12], 512 µM (≈ 860 µg/mL) in assay [13], not below 128 µM in assay [14] and 256 µM (≈ 430 µg/mL) in [9].
For `CC[C@H](C)[C@H](NC(=O)[C@H](C)NC(=O)[C@H](CCCCN)NC(=O)[C@H](C)NC(=O)[C@@H](NC(=O)[C@H](CC(C)C)NC(=O)[C@H](CCCCN)NC(=O)[C@H](CC(C)C)NC(=O)[C@@H](NC(=O)[C@H](CCCCN)NC(=O)[C@@H](NC(=O)[C@H](C)NC(=O)[C@H](CCCCN)NC(=O)[C@H](CCCN=C(N)N)NC(=O)[C@H](CCCN=C(N)N)NC(=O)[C@@H](N)CCCCN)[C@@H](C)CC)[C@@H](C)CC)[C@@H](C)CC)C(=O)N[C@@H](CCCN=C(N)N)C(=O)N[C@@H](CCCCN)C(=O)N[C@@H](CCCCN)C(=O)N[C@@H](CCCN=C(N)N)C(N)=O` [KRRKAIKILKLIAKAIRKKR], the MIC in assay [15] came out at 0.103 µM (≈ 0.25 µg/mL); in assay [16], 4.11 µM (≈ 10 µg/mL); in [17] it was 4.11 µM (≈ 10 µg/mL); in [18] it was 0.103 µM (≈ 0.25 µg/mL); in assay [19], 0.0411 µM (≈ 0.0999 µg/mL); in [20], 4.11 µM (≈ 10 µg/mL).
Take `CC(C)C[C@H](NC(=O)[C@H](C)NC(=O)[C@H](Cc1ccccc1)NC(=O)[C@H](CCCN=C(N)N)NC(=O)[C@H](Cc1ccccc1)NC(=O)[C@H](C)NC(=O)[C@H](CCCN=C(N)N)NC(=O)[C@H](Cc1ccccc1)NC(=O)[C@H](C)NC(=O)[C@H](CC(C)C)NC(=O)[C@H](CCCCN)NC(=O)[C@H](CCCN=C(N)N)NC(=O)[C@H](CCCN=C(N)N)NC(=O)[C@@H](N)CCCCN)C(=O)N[C@@H](CCCCN)C(=O)N[C@@H](C)C(=O)N[C@H](C(=O)N[C@@H](CC(C)C)C(=O)N[C@@H](CCCCN)C(=O)N[C@@H](CCCCN)C(N)=O)C(C)C` [KRRKLAFRAFRFALKAVLKK]: the MIC in assay [15] is 0.102 µM (≈ 0.25 µg/mL); in [16], 4.08 µM (≈ 10 µg/mL); in assay [17], 1.02 µM (≈ 2.5 µg/mL); in assay [18], 0.204 µM (≈ 0.5 µg/mL); in assay [19] it was 0.102 µM (≈ 0.25 µg/mL); in [20] it was 0.204 µM (≈ 0.5 µg/mL).
In the case of `CC[C@H](C)[C@H](NC(=O)[C@H](CC(N)=O)NC(=O)[C@H](CCCN=C(N)N)NC(=O)[C@H](C)NC(=O)[C@H](CCSC)NC(=O)[C@H](CCCCN)NC(=O)[C@H](CCC(=O)O)NC(=O)[C@@H](NC(=O)[C@H](CCCCN)NC(=O)[C@H](CCCCN)NC(=O)[C@H](Cc1ccccc1)NC(=O)[C@@H](NC(=O)[C@H](CCCCN)NC(=O)[C@H](Cc1c[nH]c2ccccc12)NC(=O)[C@@H](N)CCCCN)C(C)C)[C@@H](C)CC)C(=O)N[C@@H](CCCN=C(N)N)C(=O)N[C@@H](CC(N)=O)C(=O)N[C@@H](CCCCN)C(=O)N[C@H](C(=O)N[C@H](C(=O)N[C@@H](CCCCN)C(N)=O)C(C)C)[C@@H](C)CC` [KWKVFKKIEKMARNIRNKIVK], the values for the MIC in assay [21], in [22] and in assay [1] were more than 12 µM, more than 3 µM and 6 µM (≈ 15.9 µg/mL), respectively.
With `CC(C)C[C@H](NC(=O)[C@H](Cc1c[nH]c2ccccc12)NC(=O)[C@H](CCCCN)NC(=O)[C@H](CCCCN)NC(=O)[C@@H](N)CC(C)C)C(=O)N[C@@H](CCCCN)C(N)=O` [LKKWLK], the MIC in [23] was not below 245 µM; in assay [24], not below 245 µM; in assay [25], not below 245 µM; in assay [22], more than 245 µM; in [26], more than 245 µM; in assay [27] it was not below 245 µM. Moreover, the MIC in assay [13] and in assay [9] was more than 245 µM throughout.

(Values after DBAASP.)
